# From patent US20020164581A1 (priority 2001, published 2002)
# Several values for one entry are separate records, joined by “and”; a condition that tells them apart may be missing. Equal values may be shown once. Read-outs that look alike come from different tables or passages of the source.
# Key:
# [1] = tested on: endothelial nitric oxide synthase; conditions: cited from earlier work
# [2] = tested on: bovine aortic endothelial cells (bAECs)
# Procedure: Primary cultures of bAECs were established from five female beef cattle (ranging in age from 1 to 2 years old) according to the method of Fenselau and Mello (Cancer Res. 36:3269-3273, 1976). Pooled cells were routinely maintained under humidified air (5% CO2) at 37° C. in Dulbecco's modified medium supplemented with 10% fetal bovine serum (FBS). Cells from the second to the fifth passages were used in these studies.
# In the studies in which male and female bAECs were compared, batches of bAECs were independently established from 5 female and 4 male beef cattle (ranging in age from 1 to 2 years old) according to the method of Fenselau and Mello (Cancer Res. 36:3269-3273, 1976). Otherwise, the cells were treated and assessed as described in the paragraph above.
# Prior to E2 pretreatment, cells were grown in phenol red-free DMEM supplemented with 10% dextran/charcoal-stripped FBS for at least 1 passage (3-4 days). Phenol red-free Dulbecco's modified medium was used to avoid potential estrogenic interference. Serum steroid deprivation was conducted according to the conditions described by Yeh et al. (Proc. Natl. Acad. Sci. USA 95:5527-5532, 1998). The E2 level in the stripped serum was assayed using an [^125I] 17β-estradiol radioimmunoassay kit (TKE21, Diagnostic Products Corporation, Los Angeles, Calif.). […] The cells grown in E2-free environments were plated onto Falcon 24-well Primariae™ plates at a density of 5×10^4 cells/well. E2 in dimethylsulfoxide (DMSO) was added to each well at final concentrations ranging from 1 nM to 10 μM 3 hours after plating, and the cells were then incubated for 24 hours (a duration commonly used for the studies of the genomic effects of E2) at 37° C. Control cells were treated with a corresponding amount of DMSO (a final concentration 0.05%).
# Prior to oxidative challenge, E2-containing media was removed, and the cells were rinsed with PBS twice and re-fed with serum-free fresh medium. Subsequently, paraquat was added to the cells at the indicated doses (0.1-2.0 mM) for 3 hours. The oxidative challenge was terminated by aspiration of the oxidant-containing medium and quickly rinsing the cells twice with PBS. The cells were allowed to recover for 48 hours in medium supplemented with 10% regular FBS to exclude the possibility that different concentrations of E2 interfere with the cellular recovery processes.
# Cell survival after oxidative challenge was assessed with a 3-(4,5-dimethylthiazol-2-yl) 2,5 diphenyltetrazolium bromide (MTT) assay in which the mitochondrial dehydrogenase activity of viable cells reduces MTT to a blue formazan product (Carmichael et al. Cancer Res. 47:936-942, 1987). Our prior conditions were employed (Si et al., Endocrine in press, 2001). Briefly, cells were treated with 1/10 volume of MTT solution (5 mg/ml in PBS) and incubated at 37° C. for 2 hours. The supernatant was then removed, and 600 μl of lysis buffer (50% dimethyl formamide, 5% sodium dodecyl sulphate, 0.35 M acetic acid, 50 mM HCl) was added to each well. Following cell lysis, the absorbency was measured at 570 nm and used as an indicator of relative cell survival. The surviving fraction was calculated as compared to the cells without paraquat challenge.
# Two experimental groups were created. In the first group, E2 was added only during the 24-hour pretreatment period. In the second group, E2 was added only during the 3-hour paraquat exposure.
# female and male bAECs = format: cell-based, bovine; conditions: for mean DCFH fluorescence: separate set of donors, 45-minute paraquat exposure
# Procedure: For flow cytometric analysis (after E2 treatment), female and male bAECs were trypsinized, rinsed, and resuspended in PBS containing 2% BSA at a density of 5×10^5 cells/ml. The cells were loaded with dichlorofluorescin diacetate (Molecular Probes, Eugene, Oreg.) (dissolved in DMSO) at 5 μg/ml for 15 minutes followed by paraquat insult (1 mM) at room temperature in the dark. At the designated times, aliquots were withdrawn, placed on ice, and the fluorescence of oxidized DCFH was analyzed by a FACSCalibur™ flow cytometer (Becton-Dickinson, San Jose, Calif.) equipped with an argon laser. A collection filter for the green emission of oxidized DCFH (530/30 nm) was used. Fluorescence signal was collected in log mode and analyzed using Cellquest™ software (Becton-Dickinson).
# SOD can dismutate the superoxide radical to hydrogen peroxide, which is subsequently detoxified by CAT or GPX. […] This theory was tested by comparing the level of ROS in female and male bAECs during subsequent oxidant exposure. Following E2 treatment for 24 hours, cells were loaded with dichlorofluorescein diacetate, which penetrates their plasma membranes and is converted to 2′,7′-dichlorofluorescein (DCFH) by intracellular esterases. This nonfluorescent compound, once oxidized by ROS such as hydrogen peroxide, turns to a highly fluorescent derivative.
# [3] = tested on: glutathione peroxidase (GPX); assay: GPX activity in cell lysate (NADPH oxidation); format: cell-based, bovine
# Procedure: Cells pretreated with different concentrations of E2 for 24 hours were harvested in a solution containing 50 mM Tris-HCl (pH 7.4), 1 mM EDTA, 2 μg/ml pepstatin A, 10 μg/ml benzamidine, and 10 μg/ml trypsin inhibitor. The cells were then lysed on ice by sonication at a setting of 50 mW, with 3×15 set cycles using a Cole-Parmer Ultrasonic Homogenizer (Chicago, Ill.). Protein concentrations in the samples were determined by the Bradford method with bovine serum albumin as a standard (Bradford, Anal. Biochem. 72:248-254, 1976).
# GPX activity was determined by a modified method of Flohe and Gunzler (Methods Enzymol. 105:114-121, 1984). One unit of GPX activity is defined as the amount of protein that oxidizes 1 nmole of β-NADPH per minute. In this assay, 100 μl of cell homogenate (about 100 μg protein) was added to 800 μl of phosphate buffer (0.1 M NaH2PO4, 0.1 M Na2HPO4, 0.1 mM EDTA, pH 7.0) containing 12.5 mM glutathione (reduced form, GSH), 0.2 mM β-nicotinamide adenine dinucleotide phosphate (reduced form, β-NADPH), and 0.34 U glutathione reductase. This mixture was pre-incubated at 37 C for 10 minutes and then 100 μl of 12 mM t-butyl hydroperoxide was added. The absorbency of the mixture was determined at 340 nm for 3 minutes. The molar extinction coefficient of 6.22 mM/cm was used to determine the activity of GPX.
# [4] = 24 h pretreatment, paraquat challenge
structure (smiles),measurement,setting,value
"C[C@]12CC[C@@H]3c4ccc(O)cc4CC[C@H]3[C@@H]1CC[C@@H]2O [E2, 17β-estradiol]",optimal concentration of E2 for endothelial nitric oxide synthase induction,[1],1 to 10 nM
same,E2 dosage that defended cells when present during oxidative challenge,[2],10 µM
same,oxidant protection with E2 present during paraquat exposure,[2],mild but notable oxidant protection
same,oxidative protection after brief preincubation,[2],not effective in providing oxidative protection
same,oxidative resistance (MTT survival),[2],marked augmentation of oxidative resistance
same,protection against subsequent oxidative challenge,[2],acquired significant protection against subsequent oxidative challenge
same,resistance to paraquat toxicity (cell survival),[2],enhanced resistance to the toxic effect of paraquat
same,E2 concentration of optimal protection,[2]; [4],1 to 10 nM
same,E2 dosage at which protection gradually declined in magnitude,[2]; [4],about 1 μM
same,protection after brief estrogenic exposure,"[2]; E2 30 minutes only, washed, male or female endothelial cells",No protection by E2
same,LD50 of paraquat toxicity in E2-pretreated cells,[2]; cells pretreated with 1 nM E2 for 24 h,about 1 mM
same,magnitude of protection at elevated E2,"[2]; female bAECs, E2 0.1-10 μM, P<0.05 vs. 1 nM",gradually decreased
same,protection against paraquat challenge,"[2]; male bAECs, E2 pretreatment at any tested concentration",no protection was seen
same,mean fluorescence intensity of oxidized DCFH,female and male bAECs,795 and 1323
same,"basal level of DCFH oxidation, female vs male","female and male bAECs; E2-pretreated cells, before paraquat",similar
same,mean DCFH fluorescence,female and male bAECs; female bAECs,1002
same,mean DCFH fluorescence,female and male bAECs; male bAECs,1581
same,GPX activity elevation relative to untreated cells,[3]; 1 nM E2 pretreatment (Example 8),~2 fold
same,GPX activity increase,"[3]; female bAECs, 24 h 1 nM E2 (Example 12)",~3 fold
